For 22 molecules, IC50 results are on record in patent publication US8901118B2, “Compounds and methods for kinase modulation, and indications therefor” (Plexxikon Inc., priority 2010, dated 2014).

One assay has as its target Fms kinase (Homo sapiens, UniProt P07333). The assay can be described thus: Fms kinase biochemical activity assay (AlphaScreen, biotin-(E4Y)10 phosphorylation). The following applies: 100 μM ATP; read-out: Biochemical Inhibition IC50 Fms. A digest of the protocol:
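AlphaScreen read-out (PY20 acceptor, streptavidin donor beads, EDTA stop) of biotin-(E4Y)10 phosphorylation, with IC50 taken from the concentration–signal curve. Reaction: 30 nM substrate, 100 μM ATP, 1 ng/well Fms, Hepes pH 7.5 with Mg2+/Mn2+, 5% DMSO, 20 min at 30 °C.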

The next assay deals with T1, Flt-3 kinase (Homo sapiens, UniProt P36888).
T1 sequence (P36888 27-993): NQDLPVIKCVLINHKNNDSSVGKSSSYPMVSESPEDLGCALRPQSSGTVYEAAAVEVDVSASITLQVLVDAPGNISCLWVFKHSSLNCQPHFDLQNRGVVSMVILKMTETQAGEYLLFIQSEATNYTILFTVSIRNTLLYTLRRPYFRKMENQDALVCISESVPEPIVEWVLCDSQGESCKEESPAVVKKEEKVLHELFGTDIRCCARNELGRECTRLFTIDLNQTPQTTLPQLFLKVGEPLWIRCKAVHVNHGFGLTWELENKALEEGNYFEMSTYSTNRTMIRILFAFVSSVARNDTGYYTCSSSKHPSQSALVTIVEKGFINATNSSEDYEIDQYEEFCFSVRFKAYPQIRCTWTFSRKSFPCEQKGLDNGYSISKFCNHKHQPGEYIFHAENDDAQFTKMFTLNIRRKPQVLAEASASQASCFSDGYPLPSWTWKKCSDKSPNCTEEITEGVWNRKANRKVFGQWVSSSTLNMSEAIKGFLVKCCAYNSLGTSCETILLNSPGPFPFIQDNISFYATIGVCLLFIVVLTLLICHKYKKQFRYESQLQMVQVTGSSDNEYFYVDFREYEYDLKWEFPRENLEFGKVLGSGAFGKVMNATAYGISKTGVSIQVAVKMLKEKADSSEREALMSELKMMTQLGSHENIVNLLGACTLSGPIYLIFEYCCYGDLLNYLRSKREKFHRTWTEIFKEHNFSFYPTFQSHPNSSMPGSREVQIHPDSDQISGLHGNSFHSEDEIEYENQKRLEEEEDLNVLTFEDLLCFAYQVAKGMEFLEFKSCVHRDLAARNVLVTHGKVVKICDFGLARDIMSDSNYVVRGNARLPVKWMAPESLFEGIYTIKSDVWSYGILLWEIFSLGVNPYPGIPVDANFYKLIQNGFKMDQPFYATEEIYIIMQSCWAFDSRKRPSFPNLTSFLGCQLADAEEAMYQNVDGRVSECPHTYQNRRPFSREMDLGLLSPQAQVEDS
Description: Flt-3 kinase biochemical activity assay (AlphaScreen). The following applies: 100 μM ATP; read-out: Biochemical Inhibition IC50 Flt3. On the procedure:
In one assay the biochemical activity IC50 values are determined with respect to inhibition of Flt-3 kinase activity, where inhibition of phosphorylation of a peptide substrate is measured as a function of compound concentration. Compounds to be tested, dissolved in DMSO (1 μL), are added to a white 384-well plate (Costar #3705). Working stocks of Flt-3 kinase (Invitrogen), biotin-(E4Y)10 substrate (Upstate Biotech, Cat#12-440), and ATP (Sigma, Cat#A-3377) are prepared in 25 mM Hepes pH 7.5, 5 mM MgCl2, 5 mM MnCl2, 1 mM DTT, and 0.01% Tween-20. All components are added to the 384-well plate for a final concentration of 1 ng/well Flt-3, 30 nM biotin-(E4Y)10 and 100 μM ATP in a volume of 20 μL. Each sample is at 5% DMSO. The plate is then incubated for 1 hour at room temperature. Just before use, working stocks of donor and acceptor beads from the AlphaScreen PY20 Detection Kit (PerkinElmer, Cat#676601M) are prepared in 25 mM Hepes pH 7.5, pH 7.4, 100 mM EDTA. 0.3% BSA. To stop the reaction, the plate is uncovered in the dark and 5 μL of Donor Beads solution (Streptavidin beads) is added to each well. The plate is incubated at room temperature for 20 minutes. Five microliters of Acceptor Beads solution (PY20 coated beads) are then added to each well. The final concentration of each bead is 10 μg/mL. The plates are incubated at room temperature for 60 minutes. Fluorescence signal is recorded on the Envision reader. Phosphorylated substrate results in binding of the PY20 antibody and association of the donor and acceptor beads such that signal correlates with kinase activity. The signal vs. compound concentration is used to determine the IC50.
For orientation: Alpha assays give light when donor and acceptor beads are brought close together.

Fms kinase, sequence (P07333 20-972): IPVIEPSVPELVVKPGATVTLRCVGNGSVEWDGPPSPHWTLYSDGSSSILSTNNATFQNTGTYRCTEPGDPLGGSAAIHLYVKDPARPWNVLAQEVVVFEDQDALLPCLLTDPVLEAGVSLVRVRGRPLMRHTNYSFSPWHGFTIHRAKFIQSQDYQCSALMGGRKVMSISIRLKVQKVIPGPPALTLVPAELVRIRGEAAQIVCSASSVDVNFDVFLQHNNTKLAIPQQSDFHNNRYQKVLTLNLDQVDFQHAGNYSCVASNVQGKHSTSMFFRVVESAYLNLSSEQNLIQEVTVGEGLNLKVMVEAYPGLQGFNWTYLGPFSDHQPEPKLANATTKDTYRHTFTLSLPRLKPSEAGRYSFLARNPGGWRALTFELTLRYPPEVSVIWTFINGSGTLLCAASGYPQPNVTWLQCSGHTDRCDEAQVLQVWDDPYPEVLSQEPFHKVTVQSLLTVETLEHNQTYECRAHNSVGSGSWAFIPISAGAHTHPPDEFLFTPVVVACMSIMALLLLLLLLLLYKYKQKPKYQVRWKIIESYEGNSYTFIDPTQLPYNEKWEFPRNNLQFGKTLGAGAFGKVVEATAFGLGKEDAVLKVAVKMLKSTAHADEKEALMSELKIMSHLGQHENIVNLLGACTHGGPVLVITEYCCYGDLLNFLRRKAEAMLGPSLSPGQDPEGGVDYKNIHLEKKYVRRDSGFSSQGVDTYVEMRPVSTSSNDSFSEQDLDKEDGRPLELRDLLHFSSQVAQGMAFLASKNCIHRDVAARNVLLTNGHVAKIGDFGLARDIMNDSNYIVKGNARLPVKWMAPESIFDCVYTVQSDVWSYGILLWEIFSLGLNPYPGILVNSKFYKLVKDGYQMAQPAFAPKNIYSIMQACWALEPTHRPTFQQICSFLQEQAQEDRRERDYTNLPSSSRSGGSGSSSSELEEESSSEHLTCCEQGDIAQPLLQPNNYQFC

A word on the IC50: it is the midpoint of a concentration-inhibition curve. As to `FC1(F)CCC(Nc2ncc(Cc3c[nH]c4ncc(Cl)cc34)cn2)CC1` [Compound P-3004], the results for the IC50 at Fms kinase and on Flt-3 kinase were < 10 nM and > 1000 nM, respectively.

For the molecule `COc1ccccc1Nc1ncc(Cc2c[nH]c3ncc(Cl)cc23)cn1` [Compound P-3016, [5-(5-Chloro-1H-pyrrolo[2,3-b]pyridin-3-ylmethyl)-pyrimidin-2-yl]-(2-methoxy-phenyl)-amine], the IC50 on Fms kinase and at Flt-3 kinase was < 100 nM throughout.

Consider `Fc1cccc(Nc2ncc(Cc3c[nH]c4ncc(Cl)cc34)cn2)c1` [Compound P-3017, [5-(5-Chloro-1H-pyrrolo[2,3-b]pyridin-3-ylmethyl)-pyrimidin-2-yl]-(3-fluoro-phenyl)-amine], for which the IC50 at Fms kinase and at Flt-3 kinase was < 100 nM throughout.

For `Cc1cnc2[nH]cc(Cc3cnc(Nc4ccc(C(F)(F)F)nc4)nc3)c2c1` [Compound P-3018, [5-(5-Methyl-1H-pyrrolo[2,3-b]pyridin-3-ylmethyl)-pyrimidin-2-yl]-(6-trifluoromethyl-pyridin-3-yl)-amine], the 50% inhibitory concentration (IC50) on Fms kinase and on Flt-3 kinase was < 10 nM each time.

`COc1ccc(Nc2ccc(Cc3c[nH]c4ncc(C)cc34)c(F)n2)cn1` [Compound P-3019, [6-fluoro-5-(5-methyl-1H-pyrrolo[2,3-b]pyridin-3-ylmethyl)-pyridin-2-yl]-(6-methoxy-pyridin-3-yl)-amine]: the 50% inhibitory concentration (IC50) is < 10 nM at Fms kinase and < 1000 nM at Flt-3 kinase.

Take `COc1ccc(Nc2ncc(Cc3c[nH]c4ncc(C)cc34)cn2)cn1` [Compound P-3020, (6-Methoxy-pyridin-3-yl)-[5-(5-methyl-1H-pyrrolo[2,3-b]pyridin-3-ylmethyl)-pyrimidin-2-yl]-amine]: the IC50 on Fms kinase and on Flt-3 kinase was < 10 nM each time.

Take `COc1ccc(Nc2ncc(Cc3c[nH]c4ncc(C)cc34)cn2)cc1` [Compound P-3021, (4-Methoxy-phenyl)-[5-(5-methyl-1H-pyrrolo[2,3-b]pyridin-3-ylmethyl)-pyrimidin-2-yl]-amine]: the IC50 on Fms kinase and at Flt-3 kinase was < 10 nM throughout.

Regarding `COc1cc(Nc2ncc(Cc3c[nH]c4ncc(C)cc34)cn2)ccc1F` [Compound P-3022, (4-Fluoro-3-methoxy-phenyl)-[5-(5-methyl-1H-pyrrolo[2,3-b]pyridin-3-ylmethyl)-pyrimidin-2-yl]-amine], the IC50 at Fms kinase and at Flt-3 kinase was < 100 nM in each case.

As for `CCCOc1ccc(Nc2ncc(Cc3c[nH]c4ncc(C)cc34)cn2)cc1` [Compound P-3024, [5-(5-Methyl-1H-pyrrolo[2,3-b]pyridin-3-ylmethyl)-pyrimidin-2-yl]-(4-propoxy-phenyl)-amine], the IC50 is < 100 nM on Fms kinase and < 10 nM at Flt-3 kinase.

Consider `CCc1ccc(Nc2ncc(Cc3c[nH]c4ncc(C)cc34)cn2)cc1` [Compound P-3025, (4-Ethyl-phenyl)-[5-(5-methyl-1H-pyrrolo[2,3-b]pyridin-3-ylmethyl)-pyrimidin-2-yl]-amine], for which the IC50 on Fms kinase was < 100 nM; on Flt-3 kinase, < 10 nM.

As to `CCOc1ccc(Nc2ncc(Cc3c[nH]c4ncc(C)cc34)cn2)cc1` [Compound P-3026, (4-Ethoxy-phenyl)-[5-(5-methyl-1H-pyrrolo[2,3-b]pyridin-3-ylmethyl)-pyrimidin-2-yl]-amine], the half-inhibitory concentration (IC50) on Fms kinase was < 10 nM; on Flt-3 kinase, < 100 nM.

Turning to `CCOc1ccc(Nc2ncc(Cc3c[nH]c4ncc(C)cc34)cn2)cn1` [Compound P-3027, (6-Ethoxy-pyridin-3-yl)-[5-(5-methyl-1H-pyrrolo[2,3-b]pyridin-3-ylmethyl)-pyrimidin-2-yl]-amine], the IC50 at Fms kinase and at Flt-3 kinase was < 10 nM throughout.

Consider `CCn1ccc(Nc2ncc(Cc3c[nH]c4ncc(C)cc34)cn2)n1` [Compound P-3035, (1-Ethyl-1H-pyrazol-3-yl)-[5-(5-methyl-1H-pyrrolo[2,3-b]pyridin-3-ylmethyl)-pyrimidin-2-yl]-amine], for which the IC50 on Fms kinase was < 1000 nM; at Flt-3 kinase, < 100 nM.

In the case of `CCn1cc(Nc2ncc(Cc3c[nH]c4ncc(C)cc34)cn2)cn1` [Compound P-3036, (1-Ethyl-1H-pyrazol-4-yl)-[5-(5-methyl-1H-pyrrolo[2,3-b]pyridin-3-ylmethyl)-pyrimidin-2-yl]-amine], the IC50 is < 10 nM on Fms kinase and < 100 nM on Flt-3 kinase.

With `CCOc1ccc(Nc2ccc(Cc3c[nH]c4ncc(C)cc34)c(F)n2)cn1` [Compound P-3039, (6-ethoxy-pyridin-3-yl)-[6-fluoro-5-(5-methyl-1H-pyrrolo[2,3-b]pyridin-3-ylmethyl)-pyridin-2-yl]-amine], the half-maximal inhibitory concentration (IC50) at Fms kinase was < 10 nM; on Flt-3 kinase it was < 100 nM.

With `COc1ccc(Nc2ccc(C(=O)c3c[nH]c4ncc(C)cc34)c(F)n2)cn1` [Compound P-3040, [2-Fluoro-6-(6-methoxy-pyridin-3-ylamino)-pyridin-3-yl]-(5-methyl-1H-pyrrolo[2,3-b]pyridin-3-yl)-methanone], the 50% inhibitory concentration (IC50) on Fms kinase and at Flt-3 kinase was < 100 nM each time.

With `Cc1cnc2[nH]cc(Cc3ccc(Nc4ccc(C)nc4)nc3F)c2c1` [Compound P-3041, [6-Fluoro-5-(5-methyl-1H-pyrrolo[2,3-b]pyridin-3-ylmethyl)-pyridin-2-yl]-(6-methyl-pyridin-3-yl)-amine], the values for the IC50 at Fms kinase and on Flt-3 kinase were < 10 nM and < 1000 nM, respectively.

`Cc1ccc(Nc2ccc(Cc3c[nH]c4ncc(Cl)cc34)c(F)n2)cn1` [Compound P-3042, [5-(5-Chloro-1H-pyrrolo[2,3-b]pyridin-3-ylmethyl)-6-fluoro-pyridin-2-yl]-(6-methyl-pyridin-3-yl)-amine]: the half-maximal inhibitory concentration (IC50) on Fms kinase was < 10 nM; on Flt-3 kinase, < 1000 nM.

On to `Cc1cnc2[nH]cc(C(=O)c3ccc(Nc4ccc(C)nc4)nc3F)c2c1` [Compound P-3043, [2-Fluoro-6-(6-methyl-pyridin-3-ylamino)-pyridin-3-yl]-(5-methyl-1H-pyrrolo[2,3-b]pyridin-3-yl)-methanone], for which the 50% inhibitory concentration (IC50) at Fms kinase is < 10 nM; on Flt-3 kinase, < 1000 nM.

In the case of `Cc1ccc(Nc2ccc(C(=O)c3c[nH]c4ncc(Cl)cc34)c(F)n2)cn1` [Compound P-3044, (5-Chloro-1H-pyrrolo[2,3-b]pyridin-3-yl)-[2-fluoro-6-(6-methyl-pyridin-3-ylamino)-pyridin-3-yl]-methanone], the IC50 is < 10 nM on Fms kinase and < 1000 nM on Flt-3 kinase.

Turning to `CCOc1ccc(Nc2ccc(C(=O)c3c[nH]c4ncc(C)cc34)c(F)n2)cn1` [Compound P-3045, [6-(6-ethoxy-pyridin-3-ylamino)-2-fluoro-pyridin-3-yl]-(5-methyl-1H-pyrrolo[2,3-b]pyridin-3-yl)-methanone], the IC50 on Fms kinase is < 10 nM; at Flt-3 kinase, < 100 nM.

For the molecule `COc1ccc(Nc2ccc(Cc3c[nH]c4ncnc(OC)c34)c(F)n2)cn1` [Compound P-4001, [6-Fluoro-5-(4-methoxy-7H-pyrrolo[2,3-d]pyrimidin-5-ylmethyl)-pyridin-2-yl]-(6-methoxy-pyridin-3-yl)-amine], the values for the concentration for half-maximal inhibition (IC50) at Fms kinase and at Flt-3 kinase were < 10 nM and < 1000 nM, respectively.
